Assay results taken from US5223526A, “Pyrazole carboxanilide fungicides and use” (Monsanto Company, priority 1992, dated 1993).

What was measured:
[1] = biological target: T1, succinate dehydrogenase (Botrytis cinerea, UniProt A0A384J5E4+A0A384J8V8+A0A384JHJ5); assay: Enzyme inhibition: succinate dehydrogenase activity in Botrytis cinerea mitochondria (DCPIP reduction); type: biochemical; conditions: concentration required to inhibit the rate of DCPIP reduction by 50%; Botrytis cinerea isolate Nick mitochondria; read-out: I50 (μM conc.)
T1 construct: succinate-DCPIP reductase assay with KCN
T1 sequence (A0A384J5E4 1-300): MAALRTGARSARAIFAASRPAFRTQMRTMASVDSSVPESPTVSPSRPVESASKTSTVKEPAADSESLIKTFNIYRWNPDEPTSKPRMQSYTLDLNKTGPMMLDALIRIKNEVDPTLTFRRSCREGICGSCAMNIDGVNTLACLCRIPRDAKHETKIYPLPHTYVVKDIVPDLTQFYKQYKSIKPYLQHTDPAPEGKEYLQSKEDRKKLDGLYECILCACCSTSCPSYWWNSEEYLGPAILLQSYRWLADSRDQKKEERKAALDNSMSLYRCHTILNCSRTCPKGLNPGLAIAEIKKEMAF
T1 sequence (A0A384J8V8 1-189): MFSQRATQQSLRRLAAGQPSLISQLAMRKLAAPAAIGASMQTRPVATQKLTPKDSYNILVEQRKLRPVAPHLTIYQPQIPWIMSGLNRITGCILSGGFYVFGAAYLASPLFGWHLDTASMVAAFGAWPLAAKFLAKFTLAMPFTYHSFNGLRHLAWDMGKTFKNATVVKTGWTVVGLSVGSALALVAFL
T1 sequence (A0A384JHJ5 1-192): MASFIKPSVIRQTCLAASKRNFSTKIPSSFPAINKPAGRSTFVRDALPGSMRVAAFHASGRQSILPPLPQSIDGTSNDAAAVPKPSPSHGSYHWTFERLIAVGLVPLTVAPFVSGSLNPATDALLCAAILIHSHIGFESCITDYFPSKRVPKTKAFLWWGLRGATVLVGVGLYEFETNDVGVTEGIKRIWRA
T1 sequence (A0A384K456 1-647 partner): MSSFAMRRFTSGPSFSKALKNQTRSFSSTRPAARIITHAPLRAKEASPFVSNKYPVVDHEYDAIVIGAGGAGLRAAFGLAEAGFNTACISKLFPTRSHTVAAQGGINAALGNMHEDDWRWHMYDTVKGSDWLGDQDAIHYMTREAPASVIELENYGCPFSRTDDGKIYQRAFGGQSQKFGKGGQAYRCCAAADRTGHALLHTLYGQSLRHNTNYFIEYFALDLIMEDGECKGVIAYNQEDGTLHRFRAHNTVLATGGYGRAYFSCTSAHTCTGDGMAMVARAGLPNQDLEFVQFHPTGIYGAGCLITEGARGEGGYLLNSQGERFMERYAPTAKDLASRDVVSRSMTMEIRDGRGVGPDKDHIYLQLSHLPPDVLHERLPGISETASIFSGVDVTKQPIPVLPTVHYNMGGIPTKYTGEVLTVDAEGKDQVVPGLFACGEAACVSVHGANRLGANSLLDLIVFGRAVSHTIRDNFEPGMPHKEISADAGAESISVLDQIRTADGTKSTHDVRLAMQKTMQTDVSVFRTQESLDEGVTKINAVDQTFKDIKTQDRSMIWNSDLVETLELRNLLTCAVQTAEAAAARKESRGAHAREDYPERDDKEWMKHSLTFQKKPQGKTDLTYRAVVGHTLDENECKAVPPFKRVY
In short: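 Crude mitochondria from Botrytis cinerea isolate Nick mycelia, prepared by bead-beating and differential centrifugation, started reactions. SDH activity followed as DCPIP reduction at 600 nm in 50 mM K-phosphate pH 7.2 with 1 mM KCN, 45 μM DCPIP, 17 mM succinate, 1% acetone. I50 from semilog inhibition plots, corrected for succinate-free rates.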

[2] = test system: Botrytis cinerea; assay: Eggplant grey mold; type: in vivo; design: scale not given here; conditions: inoculated 24 h later, rated after 3-4 days; for Disease Control Rating at 500 ppm: eggplant sprayed with 500 ppm; for Disease Control Rating at 20 ppm: eggplant sprayed with 20 ppm; for Disease Control Rating at 100 ppm: eggplant sprayed with 100 ppm
In short: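 Protective test: compound formulations (2:3 acetone:water, 0.5% Tween 20; 500, 100 or 20 ppm) sprayed on 14-18-day-old plants, with spore inoculum (4×10^6 spore/mL) applied a day later. Disease control rated on Botrytis lesions after 3-4 days at 23 °C and 100% humidity.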

[3] = test system: Botrytis cinerea; assay: Vine grey mold (grape berries); type: in vivo; conditions: average of six berries, 7-10 days; for pest or weed control at 50 ppm: grape berries treated with 50 ppm, read-out: % DISEASE CONTROL 50 ppm; for pest or weed control at 200 ppm: grape berries treated with 200 ppm, read-out: % DISEASE CONTROL 200 ppm
In short: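 Preventive berry test: compound at 50 or 200 ppm (acetone/water, 0.05% Tween 20) applied one day before inoculation with 10^6 spores/mL Botrytis conidia. After 7-10 days at 20 °C under 12 h light, infected surface area rated; disease control expressed as percent reduction from control mean; repeated-test values averaged.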

[4] = test system: Rhizoctonia solani; assay: Rice sheath blight; type: in vivo; design: scale not given here; conditions: inoculated two days later, rated after 7 days, average of five plants; for Disease Control Rating at 0.5 mg/mL: foliage and soil sprayed with 0.5 mg/mL; for Disease Control Rating at 0.02 mg/mL: foliage and soil sprayed with 0.02 mg/mL; for Disease Control Rating at 0.1 mg/mL: foliage and soil sprayed with 0.1 mg/mL
In short: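 Rice plants 11–15 days old had foliage and soil sprayed with 0.5, 0.1 or 0.02 mg/mL Compound A in water/acetone/Tween 20, then kept in flooded trays. Two days later, rice-grain Rhizoctonia solani inoculum went to plant bases; disease control scored versus untreated after 7 days at 25 °C, high humidity, averaging five plants.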

Cn1cc(C(=O)Nc2cc(F)ccc2C2CCCCC2)c(C(F)F)n1 [Example 16, 1H-pyrazole-4-carboxamide, N-(2-cyclohexyl-5-fluorophenyl)-3-(difluoromethyl)-1-methyl-]
IC50 [1]: 0.024 µM | Disease Control Rating at 500 ppm [2]: 1 | pest or weed control at 50 ppm [3]: 15% | pest or weed control at 200 ppm [3]: 57% | Disease Control Rating at 0.5 mg/mL [4]: 1

Cn1cc(C(=O)Nc2cccc(F)c2C2CCCCC2)c(C(F)F)n1 [Example 17, 1H-pyrazole-4-carboxamide, N-(2-cyclohexyl-3-fluorophenyl)-3-(difluoromethyl)-1-methyl-]
IC50 [1]: 0.0063 µM | Disease Control Rating at 20 ppm [2]: 1 | Disease Control Rating at 100 ppm [2]: 2 | Disease Control Rating at 500 ppm [2]: 2 | pest or weed control at 50 ppm [3]: 90% | pest or weed control at 200 ppm [3]: 95% | Disease Control Rating at 0.5 mg/mL [4]: 3

Cc1ccc(C2CCCCC2)c(NC(=O)c2cn(C)nc2C(F)(F)F)c1 [Example 18, 1H-pyrazole-4-carboxamide, N-(2-cyclohexyl-5-methylphenyl)-1-methyl-3-(trifluoromethyl)-]
IC50 [1]: 0.031 µM | Disease Control Rating at 500 ppm [2]: 0 | pest or weed control at 50 ppm [3]: 0% | pest or weed control at 200 ppm [3]: 0% | Disease Control Rating at 0.5 mg/mL [4]: 0

Cc1cccc(NC(=O)c2cn(C)nc2C(F)(F)F)c1C1CCCCC1 [Example 19, 1H-pyrazole-4-carboxamide, N-(2-cyclohexyl-3-methylphenyl)-1-methyl-3-(trifluoromethyl)-]
IC50 [1]: 0.028 µM | Disease Control Rating at 20 ppm [2]: 1 | Disease Control Rating at 100 ppm [2]: 2 | Disease Control Rating at 500 ppm [2]: 3 | pest or weed control at 50 ppm [3]: 32% | pest or weed control at 200 ppm [3]: 52% | Disease Control Rating at 0.02 mg/mL [4]: 1 | Disease Control Rating at 0.1 mg/mL [4]: 3 | Disease Control Rating at 0.5 mg/mL [4]: 3

Cc1cccc(NC(=O)c2cn(C)nc2C(F)F)c1C1CCCCC1 [Example 20, 1H-pyrazole-4-carboxamide, N-(2-cyclohexyl-3-methylphenyl)-3-(difluoromethyl)-1-methyl-]
IC50 [1]: 0.014 µM | Disease Control Rating at 20 ppm [2]: 1 | Disease Control Rating at 100 ppm [2]: 2 | Disease Control Rating at 500 ppm [2]: 3 | pest or weed control at 50 ppm [3]: 78% | pest or weed control at 200 ppm [3]: 81% | Disease Control Rating at 0.02 mg/mL [4]: 2 | Disease Control Rating at 0.1 mg/mL [4]: 3 | Disease Control Rating at 0.5 mg/mL [4]: 3

Cc1ccc(C2CCCCC2)c(NC(=O)c2cn(C)nc2C(F)F)c1 [Example 21, 1H-pyrazole-4-carboxamide, N-(2-cyclohexyl-5-methylphenyl)-3-(difluoromethyl)-1-methyl-]
IC50 [1]: 0.019 µM | Disease Control Rating at 20 ppm [2]: 1 | Disease Control Rating at 100 ppm [2]: 2 | Disease Control Rating at 500 ppm [2]: 2 | pest or weed control at 50 ppm [3]: 40% | pest or weed control at 200 ppm [3]: 34% | Disease Control Rating at 0.5 mg/mL [4]: 1

Cn1cc(C(=O)Nc2ccccc2OC2CCCCC2)c(C(F)F)n1 [Example 22, 1H-pyrazole-4-carboxamide, N-[2-(cyclohexyloxy)phenyl]-3-(difluoromethyl)-1-methyl-]
IC50 [1]: 0.0071 µM | Disease Control Rating at 500 ppm [2]: 0 | pest or weed control at 50 ppm [3]: 24% | pest or weed control at 200 ppm [3]: 22% | Disease Control Rating at 0.5 mg/mL [4]: 0

Cn1cc(C(=O)Nc2ccccc2OC2CCCCC2)c(C(F)(F)F)n1 [Example 23, 1H-pyrazole-4-carboxamide, N-[2-(cyclohexyloxy)phenyl]-1-methyl-3-(trifluoromethyl)-]
IC50 [1]: 0.01 µM | Disease Control Rating at 500 ppm [2]: 0 | pest or weed control at 50 ppm [3]: 20% | pest or weed control at 200 ppm [3]: 66% | Disease Control Rating at 0.02 mg/mL [4]: 1 | Disease Control Rating at 0.1 mg/mL [4]: 2 | Disease Control Rating at 0.5 mg/mL [4]: 3
